Results taken from patent US12263156B2, “Use of small molecule inhibitors of the BfrB:Bfd interaction in biofilms” (priority 2020, dated 2025).

Key:
BfrB (apo-BfrB) = BfrB (apo-BfrB) (Pseudomonas aeruginosa (strain ATCC 15692 / DSM 22644 / CIP 104116 / JCM 14847 / LMG 12228 / 1C / PRS 101 / PAO1), UniProt Q9HY79); experiment: Fluorescence polarization measurement of dissociation constant (Kd); type: binding; conditions: for Kd: 100 mM potassium phosphate buffer pH 7.6, 1 mM TCEP, 0.5% DMSO, average ± SD
Experimental: Values were obtained in 100 mM potassium phosphate buffer (pH 7.6) containing 1 mM TCEP and 0.5% DMSO. The initial concentrations of KM-5-25 and KM-5-66 were 5 μM. The Kd values are the average and standard deviation from three independent measurements. […] The IC50 values are the average and the standard derivations from three independent experiments.
Prior to testing the effect that the 4-substituted isoindoline-1,3-dione derivatives might exert on P. aeruginosa cells, the strength of their interaction with BfrB was evaluated in vitro with a fluorescence polarization assay developed based on the intrinsic fluorescence of the isoindoline-1,3-dione moiety.

[1] = system: iron stored in BfrB in P. aeruginosa PAO1 pellicle cells; experiment: Imaging of iron stored in BfrB in biofilm-embedded cells (native PAGE, Ferene S, densitometry); type: cell-based, Pseudomonas aeruginosa; conditions: 24 h; KM-5-25 40 μM, KM-5-66 20 μM
Excerpt: Recombinant BfrB (BfrBrec) was used as a standard for the electrophoretic mobility of BfrB. The lane corresponding to untreated control was loaded with 0.5× the volume of the lanes loaded with lysates from treated pellicles to account for the ˜2-fold larger number of viable cells in the untreated pellicles. Lanes loaded with treated pellicle lysates show greater accumulation of iron in BfrB relative to untreated cells. […] (A), (C) and (D) show the average of results from 3 biological replicates, p<0.001 is denoted by *** relative to untreated.
Pellicle biofilms were grown for 48 hours as described above. The pellicles were transferred onto square (2 cm×2 cm) glass coverslips by gently contacting the pellicle with the coverslip. […] Levels of total intracellular iron were determined as reported previously:^23, 86 the cell pellets were treated with 500 μL of freshly prepared digestion reagent (0.6 N HCl, 2.25% (w/v) KMnO4 in water), thoroughly mixed by vortexing, and then incubated at 65° C. for 3.5 hours. […] The iron concentration was measured from the absorbance of the Fe^2+-Ferene S complex (ε593=34.5 mM^−1 cm^−1),^87 normalized by the viable cell counts and reported as Fe atoms per cell. […]

SMILES	Kd (BfrB (apo-BfrB))	fold higher binding affinity for BfrB relative to JAG-5-7 (BfrB (apo-BfrB); relative to JAG-5-7)	iron in BfrB relative to untreated pellicles (Ferene S band peak areas) [1]	fold decrease of Kd relative to compound 16 (BfrB (apo-BfrB); relative to compound 16)
O=C1NC(=O)c2c(NCc3cc(Cl)ccc3O)cccc21 [KM-5-25]	4000 ± 600 nM	~2 fold	~3 fold	–
O=C1NC(=O)c2c(NCCCc3cc(O)cc(Cl)c3)cccc21 [KM-5-66]	350 ± 50 nM	–	~3 fold	~4 fold
